In US8993562B2, “Imidazo[1,2-b]pyridazines, processes, uses, intermediates and compositions” (Ferrer Internacional, S.A., priority 2006, dated 2015):
pIC50: −log10 of the molar value.

How the values were obtained:
male CD1 mice [1] = test: In vivo predictive anesthetic test (loss of righting reflex)
Description: c) In Vivo Determination of Predictive Anesthetic Activity
The in vivo effects of these compounds were assessed by a predictive anesthetic test in mice as the loss of righting reflex (Kralic et al., Neuropharmacology, 43(4), 685-689 2002; Belelli et al., Neuropharmacology, 45, 57-71, 2003).
Groups of 5-8 male CD1 mice, weighing 22-26 g at the time of test, were used. The test compounds were administered at 98.0 μmol/kg by mean of intraperitoneal injection. Compounds were suspended in 0.25% agar with one drop of Tween in a volume of 10 mL/kg.

male CD1 mice [2] = test: In vivo predictive sedation-hypnosis test (traveled distance); settings: Mus musculus, ip, 0.5 h, traveled distance over 30 min versus control, read-out: % inhib motor activity; for inhibition in vivo at 0.98 µmol/kg: 0.98 μmol/kg intraperitoneal; for inhibition in vivo at 98 µmol/kg: 98.0 μmol/kg intraperitoneal
Description: b) In Vivo Determination of Predictive Sedative-hypnotic Action
The in vivo effects of these compounds were assessed by a predictive sedation-hypnosis test in mice (D. J. Sanger et al., Eur. J. Pharmacol., 313, 35-42, 1996; and G. Griebel et al., Psychopharmacology, 146, 205-213, 1999).
Groups of 5-8 male CD1 mice, weighing 22-26 g at the time of test, were used. […] Compounds were suspended in 0.25% agar with one drop of Tween in a volume of 10 mL/kg. Control animals were given the vehicle alone. Using a Smart System (Panlab, S. L., Spain) the traveled distance in cm is recorded for each mouse at 5-minutes intervals during a period of 30 minutes after dosing. The inhibition percentage of traveled distance of treated animals versus control animals (the first 5 minutes were discarded) was calculated.

α1-GABAA receptor = test: Ligand-binding assay, radiolabeled flumazenil competition, cerebellum membranes; settings: rat cerebellum membranes, radiolabeled flumazenil 1 nM
Description: (§1) a) Ligand-binding Assays. Determination of the Affinity of Test Compounds for α1- and α2-GABAA Receptor
(§2) Male Sprague-Dawley rats weighing 200-250 g at the time of experiment were used. After decapitation of the animal, the cerebellum (tissue that mostly contains α1-GABAA receptor) and spinal cord (tissue that mostly contains α2-GABAA receptor) were removed. The membranes were prepared according to the method by J. Lameh et al. (Prog. Neuro-Psychopharmacol. Biol. Psychiatry, 24, 979-991, 2000) and H. Noguchi et al. (Eur J Pharm, 434, 21-28, 2002) with slight modifications. Once the tissues weighed, they were suspended in 50 mM Tris.HCl (pH 7.4), 1:40 (v/v), or sucrose 0.32 M in the case of spinal cord, homogenized and then centrifuged at 20000 g for 10 minutes at 7° C. The resulting pellet was resuspended under the same conditions and centrifuged again. The pellet was finally resuspended on a minimum volume and kept at −80° C. overnight. A slight modification was used in the case of spinal cord at the first centrifugation step. Centrifugation speed was at 1000 g and the supernatant was collected instead of discarded as in cerebellum. Then, supernatant was centrifuged at 20000 g and resuspended twice more under the same conditions described above for cerebellum. On the next day, the process was repeated until the final pellet was resuspended at a ratio of 1:10 (v/v) in the case of cerebellum and at a ratio of 1:5 (v/v) in the case of spinal cord.
(§3) Affinity was determined by competitive tests using radiolabeled flumazenil as ligand. The tests were performed according to the methods described by S. Arbilla et al. (Eur. J. Pharmacol., 130, 257-263, 1986); and Y. Wu et al. (Eur. J. Pharmacol., 278, 125-132, 1995) using 96-well microtiter plates. The membranes containing the study receptors, flumazenil (radiolabeling at a final concentration of 1 nM) and ascending concentrations of test compounds (in a total volume of 230 μl in 50 mM [pH 7.4] Tris.HCl buffer) were incubated. Simultaneously, the membranes were only incubated with the radiolabeled flumazenil (total binding, 100%) and in the presence of an elevated concentration of unradiolabeled flumazenil (non-specific binding, % estimation of radiolabeled ligand). The reactions started on adding the radiolabeled ligand followed by incubation for 60 minutes at 4° C. At the end of the incubation period, 200 μl of reaction were transferred to a multiscreen plate (Millipore) and filtered using a vacuum manifold and then washed three times with cold test buffer. The multiscreen plates were equipped with a GF/B filter that retained the membranes containing the receptors and the radiolabeled ligand which had been bound to the receptors. After washing, the plates were left till dry. Once dried, scintillation liquid was added and left under stirring overnight. The next day the plates were counted using a Perkin-Elmer Microbeta scintillation counter.
(§4) For analysis of the results the percentage of specific binding for every concentration of test compound was calculated as follows: specific binding−(X−N/T−N)×100 where, X: amount of bound ligand for every concentration of compound. T: total binding, maximum amount bound to the radiolabeled ligand. N: non-specific binding, amount of radiolabeled ligand bound in a non-specific way irrespective of the receptor used.
(§5) Every concentrations of compound were tested in triplicate and their mean values were used to determine the experimental values of % specific binding versus the concentration of compound. Affinity data are expressed as % inhibition at 10^−5M and 10^−7M concentrations.

α2-GABAA receptor = test: Ligand-binding assay, radiolabeled flumazenil competition, spinal cord membranes; settings: rat spinal cord membranes, radiolabeled flumazenil 1 nM
Description: as §1, §2, §3, §4, §5

GABAA receptor = biological target: T1, GABAA receptor; test: Comparative assay: IC50 values estimated from Cheng-Prusoff equation; format: binding, rat; settings: compounds of the invention; estimated from Ki by Cheng-Prusoff equation, radioligand 1 nM
T1 construct: IC50; other: compounds of the invention; estimated from Ki by Cheng-Prusoff equation, radioligand 1 nM
Description: All these compounds have in common that at 3-position, the imidazo[1,2-b]pyradizine ring have an acetamide. The rest of compounds disclosed in WO89/01333 are not structurally so related with the compounds of the present invention.
The IC50 values were estimated from Cheng-Prusoff equation (Cheng Y. C. and Prusoff W. H.; Biochem. Pharmacol. 22, 3099-3108, 1973)
[formula] where, Ki is determined for each one of the compounds of the invention as described above (section (a)). [RL*]: radiolabeled ligand concentration (1 nM). Kd: affinity constant (cerebellum 1.34 nM/spinal cord 1.19 nM)

Compound	% of animals with loss of righting reflex (male CD1 mice [1]; 98.0 μmol/kg intraperitoneal) [%]	inhibition in vivo at 0.98 µmol/kg (male CD1 mice [2]) [%]	inhibition in vivo at 98 µmol/kg (male CD1 mice [2]) [%]	% inhib 10^−5 M, affinity for the α1-subunit of the GABAA receptor (α1-GABAA receptor) [%]	% inhib 10^−7 M, affinity for the α1-subunit of the GABAA receptor (α1-GABAA receptor) [%]	% inhib 10^−5 M, affinity for the α2-subunit of the GABAA receptor (α2-GABAA receptor) [%]	% inhib 10^−7 M, affinity for the α2-subunit of the GABAA receptor (α2-GABAA receptor) [%]	pIC50 (GABAA receptor)	% of animals with loss of righting reflex (male CD1 mice [1]; double dose than compounds of the present invention) [%]
CCCN(CCC)C(=O)Cc1c(-c2ccc(C)cc2)nc2ccc(Cl)nn12 [Example 2, 2-(6-Chloro-2-p-tolyl-imidazo[1,2-b]pyridazin-3-yl)-N,N-dipropyl-acetamide]	90	38.4	96.7						
CCCCN(CCCC)C(=O)Cc1c(-c2ccc(C)cc2)nc2ccc(Cl)nn12 [Example 3, N,N-Dibutyl-2-(6-chloro-2-p-tolyl-imidazo[1,2-b]pyridazin-3-yl)-acetamide]	100	14.6	90.9						
CCN(CC)C(=O)Cc1c(-c2ccc(OC)cc2)nc2ccc(C)nn12 [Example 70, N,N-Diethyl-2-[2-(4-methoxy-phenyl)-6-methyl-imidazo[1,2-b]pyridazin-3-yl]-acetamide]			87	99.9	84.5	80.3	23.6		
CCCN(CCC)C(=O)Cc1c(-c2ccc(OC)cc2)nc2ccc(C)nn12 [Example 71, 2-[2-(4-Methoxy-phenyl)-6-methyl-imidazo[1,2-b]pyridazin-3-yl]-N,N-dipropyl-acetamide]			96	100.2	95.0	88.5	50.6		
COc1ccc(-c2nc3ccc(C)nn3c2CC(=O)N2CCCCC2)cc1 [Example 73, 2-[2-(4-Methoxy-phenyl)-6-methyl-imidazo[1,2-b]pyridazin-3-yl]-1-piperidin-1-yl-ethanone]			94.1	99.9	76.5	77.0	20.6		
CCN(CC)C(=O)Cc1c(-c2ccc(OC)cc2)nc2ccc(OC)nn12 [Example 75, N,N-Diethyl-2-[6-methoxy-2-(4-methoxy-phenyl)-imidazo[1,2-b]pyridazin-3-yl]-acetamide]			92.6	99.4	52.1	68.8	9.3		
CCCN(CC1CC1)C(=O)Cc1c(-c2ccc(C)cc2)nc2ccc(C)nn12 [Example 82, N-Cyclopropylmethyl-2-(6-methyl-2-p-tolyl-imidazo[1,2-b]pyridazin-3-yl)-N-propyl-acetamide]	30		94.2						
Cc1ccc(-c2nc3ccc(C)nn3c2CC(=O)Nc2nccs2)cc1 [Example 83, 2-(6-Methyl-2-p-tolyl-imidazo[1,2-b]pyridazin-3-yl)-N-thiazol-2-yl-acetamide]			88.9	99.6	97.6	93.1	57.7		
Cc1ccc(-c2nc3ccc(C)nn3c2CC(=O)N(C(C)C)C(C)C)cc1 [Example 84, N,N-Diisopropyl-2-(6-methyl-2-p-tolyl-imidazo[1,2-b]pyridazin-3-yl)-acetamide]			90.8	100.0	91.7	63.9	3.1		
Cc1ccc(-c2nc3ccc(C)nn3c2CC(=O)Nc2ccccc2)cc1 [Example 86, 2-(6-Methyl-2-p-tolyl-imidazo[1,2-b]pyridazin-3-yl)-N-phenyl-acetamide]			92.6	99.5	75.9	80.9	23.0		
Cc1ccc(-c2nc3ccc(C)nn3c2CC(=O)Nc2cc(C)on2)cc1 [Example 95, N-(5-Methyl-isoxazol-3-yl)-2-(6-methyl-2-p-tolyl-imidazo[1,2-b]pyridazin-3-yl)-acetamide]								7.77	
Cc1ccc(-c2nc3ccc(C)nn3c2CC(=O)Nc2cc(C)no2)cc1 [Example 97, N-(3-Methyl-isoxazol-5-yl)-2-(6-methyl-2-p-tolyl-imidazo[1,2-b]pyridazin-3-yl)-acetamide]								7.84	
Cc1ccc(-c2nc3ccc(C)cn3c2CC(=O)N(C)C)cc1 [zolpidem, N,N,6-trimethyl-2-p-tolylimidazo[1,2-a]pyridine-3-acetamide, reference compound]		18.3	91.7	99.4	73.6	74.1	19.9		80
